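Five concentrations, 48 hours, 96-well plates. GI50 is the concentration that inhibits growth by half.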 Calls of active or inactive are those of the source. No stated cut-off is given here; in the data, active = GI50 up to about 1.1 µM and inactive = higher.

Here are results for ten molecules from ChEMBL document CHEMBL1201862, “PubChem BioAssay data set” (2004).

Common to all, as to assay: DTP human tumour cell line panel, 48 h
Assay [1] concerns EKVX.
Assay [2] has as its system SK-MEL-5.
Assay [3] concerns SNB-19.
Assay [4] has as its system MOLT-4.
Assay [5] concerns BT-549.
The test system of assay [6] is U-251.
For assay [7], the system named is RXF 393.
Assay [8] deals with KM12.
Assay [9] relates to K562.
Assay [10] relates to HOP-62.
Assay [11] relates to A549.
Assay [12] relates to NCI/ADR-RES.
Assay [13] deals with HCC 2998.
The test system of assay [14] is NCI-H226.
For assay [15], the system named is SK-OV-3.
In assay [16] the test system is RPMI-8226.
Assay [17] deals with SF-539.
For assay [18], the system named is M14.
Assay [19] concerns MCF7.
For assay [20], the system named is OVCAR-3.

Take `O=C(O)c1ccc(C(=O)c2ccccc2C(=O)O)cc1C(=O)O`: the GI50 in [1], in assay [2], in assay [3], in assay [4], in [5] and in assay [6] was > 100 µM (inactive) each time. The GI50 in [7], in assay [8], in assay [9], in assay [10], in assay [11] and in assay [12] was > 100 µM (inactive) each time. Further, the GI50 in assay [13], in assay [14], in [15], in [16], in assay [17] and in assay [18] was > 100 µM (inactive) throughout. Moreover, the GI50 in [19] and in assay [20] was > 100 µM (inactive) each time.
Regarding `COP(=O)(OC)C1=c2c(C)noc2=C2C=COC2C1=O` (stereo not given), the GI50 in [1], in [2], in assay [3], in [4], in [5] and in assay [6] was > 100 µM (inactive) throughout. Moreover, the GI50 in [7], in assay [8], in assay [9], in [10], in assay [11] and in assay [12] was > 100 µM (inactive) each time. In addition, the GI50 in assay [13], in assay [14], in assay [15], in [16], in assay [17] and in assay [18] was > 100 µM (inactive) in each case. Also, the GI50 in assay [19] and in assay [20] was > 100 µM (inactive) in each case.
For `CCOC(=O)c1cn2c(n1)sc1cc(C)c(C)cc12`, the GI50 – broadly, the concentration that inhibits growth by half – was 22.3 µM (inactive) in [1]; 16.5 µM (inactive) in [2]; 20 µM (inactive) in assay [3]; 29 µM (inactive) in assay [4]; 28.7 µM (inactive) in [5]; 18.6 µM (inactive) in assay [6]. The GI50 was 22.1 µM (inactive) in [7]; 15 µM (inactive) in assay [8]; 14.4 µM (inactive) in assay [9]; 17.1 µM (inactive) in assay [10]; 18.9 µM (inactive) in assay [11]; 27.7 µM (inactive) in [12]. Besides, the GI50 in assay [13] is 66.1 µM (inactive); in assay [14], 18.9 µM (inactive); in assay [15], 26.5 µM (inactive); in assay [16], 25.6 µM (inactive); in [17], 14.6 µM (inactive); in [18], 26.5 µM (inactive). Further, the GI50 was 23.6 µM (inactive) in assay [19] and 17.5 µM (inactive) in assay [20].
Consider `Cc1cc(N(CCC#N)CCC#N)ccc1C(/N=N/c1ccccc1)=N\NC(=O)c1ccccc1`, for which the GI50 in assay [1] is 39.4 µM (inactive); in assay [2], 18.7 µM (inactive); in assay [3], 40.4 µM (inactive); in assay [4] it was 19.5 µM (inactive); in assay [5], 24 µM (inactive); in [6], 35.7 µM (inactive). Further, the GI50 in assay [7] was 58.1 µM (inactive); in assay [8], 18.1 µM (inactive); in assay [9], 9.84 µM (inactive); in assay [10] it was 55.8 µM (inactive); in assay [11], 38.8 µM (inactive); in [12], 20.2 µM (inactive). In addition, the GI50 was 22.9 µM (inactive) in assay [13]; 43.4 µM (inactive) in assay [14]; 53.5 µM (inactive) in assay [15]; 42.7 µM (inactive) in [16]; 17.4 µM (inactive) in [17]; 69 µM (inactive) in assay [18]. Further, the GI50 is 18.6 µM (inactive) in assay [19] and 30.3 µM (inactive) in assay [20].
Regarding `CC[C@@]1(OC(=O)CN(C)C)C(=O)OCc2c1cc1n(c2=O)Cc2cc3ccccc3nc2-1`, the GI50 in assay [1] was 0.863 µM (active); in assay [2], 0.0328 µM (active); in assay [3], 0.0208 µM (active); in assay [4], 0.00295 µM (active); in assay [5], 0.0536 µM (active); in assay [6], 0.0118 µM (active). Also, the GI50 in assay [7] is 0.139 µM (active); in assay [8], 0.223 µM (active); in assay [9], 0.061 µM (active); in [10], 0.0234 µM (active); in assay [11], 0.0365 µM (active); in assay [12], 0.0421 µM (active). For the same molecule, the GI50 in assay [13] is 0.145 µM (active); in assay [14] it was 0.0356 µM (active); in assay [15], 0.071 µM (active); in [16], 0.181 µM (active); in assay [17] it was 0.0111 µM (active); in [18], 0.0525 µM (active). In addition, the GI50 in assay [19] is 0.00853 µM (active); in [20], 0.32 µM (active).
Turning to `N#CC(c1ccnc(Cl)n1)c1nc2ccccc2s1` (stereo not given), the GI50 in assay [1] is 20.2 µM (inactive); in [2], 1.33 µM (inactive); in assay [3], 4.35 µM (inactive); in assay [4], 3.55 µM (inactive); in assay [5] it was 3.29 µM (inactive); in assay [6] it was 3.38 µM (inactive). The GI50 in assay [7] is 4.44 µM (inactive); in assay [8], 4.37 µM (inactive); in assay [9], 2 µM (inactive); in assay [10], 18.7 µM (inactive); in assay [11], 8.59 µM (inactive); in assay [12], 2.67 µM (inactive). Besides, the GI50 is 25.4 µM (inactive) in [13]; 3.76 µM (inactive) in assay [14]; 3.21 µM (inactive) in assay [15]; 3.54 µM (inactive) in assay [16]; 3.88 µM (inactive) in assay [17]; 3.76 µM (inactive) in assay [18]. Besides, the GI50 in assay [19] is 3.68 µM (inactive); in assay [20] it was 5.55 µM (inactive).
As to `NC1=CN(Cc2ccccc2)C2=N/C(=C\c3ccccc3O)C(=O)N12`, the GI50 was 52.1 µM (inactive) in [1]; 90.8 µM (inactive) in assay [2]; > 100 µM (inactive) in assay [3]; 96.4 µM (inactive) in [4]; > 100 µM (inactive) in assay [5]; 71.6 µM (inactive) in assay [6]. Further, the GI50 was > 100 µM (inactive) in [7]; > 100 µM (inactive) in assay [8]; 73.3 µM (inactive) in assay [9]; > 100 µM (inactive) in [10]; > 100 µM (inactive) in [11]; > 100 µM (inactive) in assay [12]. The GI50 in [13] is > 100 µM (inactive); in assay [14] it was > 100 µM (inactive); in [15], > 100 µM (inactive); in assay [16] it was 75.7 µM (inactive); in assay [17], > 100 µM (inactive); in [18] it was > 100 µM (inactive). The GI50 in [19] and in assay [20] was > 100 µM (inactive) throughout.
Turning to `CN(C)[C@@H]1C(O)=C(C(=O)NCNc2nc3[nH]nnc3c(=O)[nH]2)C(=O)[C@@]2(O)C(O)=C3C(=O)c4c(O)cccc4[C@@](C)(O)[C@H]3C[C@@H]12`, the GI50 in assay [1] was 12.4 µM (inactive); in assay [2], 1.9 µM (inactive); in assay [3], 86.1 µM (inactive); in assay [4], 0.288 µM (active); in assay [5] it was 6.7 µM (inactive); in assay [6], 2.15 µM (inactive). Moreover, the 50% growth inhibitory concentration (GI50) was 0.518 µM (active) in [7]; 49.8 µM (inactive) in assay [8]; 0.402 µM (active) in assay [9]; 0.518 µM (active) in assay [10]; 55.3 µM (inactive) in [11]; 2.37 µM (inactive) in [12]. Further, the GI50 in assay [13] was 64 µM (inactive); in assay [14], 1.73 µM (inactive); in assay [15], 0.723 µM (active); in assay [16] it was 0.272 µM (active); in [17] it was 0.641 µM (active); in [18], 0.557 µM (active). The GI50 in assay [19] is 66.1 µM (inactive); in [20], 25.9 µM (inactive).
Consider `O=C1Nc2ccccc2C(=O)O/C(Cc2ccccc2)=N\c2ccccc21`, for which the GI50 in [1], in assay [2], in assay [3], in assay [4], in assay [5] and in assay [6] was > 100 µM (inactive) throughout. The GI50 in assay [7], in assay [8], in assay [9], in [10], in [11] and in assay [12] was > 100 µM (inactive) each time. The GI50 in assay [13] is 82.8 µM (inactive); in [14], > 100 µM (inactive); in [15], > 100 µM (inactive); in assay [16], > 100 µM (inactive); in [17], > 100 µM (inactive); in [18] it was > 100 µM (inactive). Also, the GI50 in assay [19] and in assay [20] was > 100 µM (inactive) each time.
On to `O=C(O)CCC(=O)c1ccc2ccc3cccc4ccc1c2c34`, for which the GI50 in assay [1] is 58.2 µM (inactive); in assay [2], 58.6 µM (inactive); in assay [3], 92.9 µM (inactive); in assay [4], 60.3 µM (inactive); in [5] it was 63.2 µM (inactive); in [6] it was 48.5 µM (inactive). The GI50 in [7] is 46.5 µM (inactive); in assay [8], 55.2 µM (inactive); in [9] it was 81.7 µM (inactive); in assay [10] it was 84.5 µM (inactive); in assay [11] it was 62.2 µM (inactive); in assay [12], 96.4 µM (inactive). Further, the GI50 in [13] was 21.4 µM (inactive); in [14], 49 µM (inactive); in [15] it was > 100 µM (inactive); in [16] it was 63 µM (inactive); in assay [17], 27.7 µM (inactive); in assay [18], > 100 µM (inactive). Moreover, the GI50 in [19] was 54.3 µM (inactive); in assay [20], 53.7 µM (inactive).
